Several values for one entry are separate records, joined by “and”; a condition that tells them apart may be missing. Equal values may be shown once.
What was measured:
[1] = Excretion study of [^18F]FP-CIT in urine and feces of normal mice; type: in vivo, C57BL/6 mice
Procedure: For excretion analysis, male C57BL/6 mice (group II) were injected with 37 MBq of [^18F]FP-CIT in the same way described above. The mice were kept in separate cages for urine and feces collection at different time points (1, 2, 3, 4, 5, and 6 h after injection; n = 6 each). Six pieces of absorbent paper were placed in the cages to ensure that all urine samples were absorbed into the paper when the test animals excreted the urine. Fecal samples were collected using felt. The urine remaining in the bladder was collected using a syringe after the mice were sacrificed at the endpoints. The samples collected at each time point were measured using a dose calibrator (CRC-127R; Capintec, Florham Park, NJ, USA). Decay correction of the radioactivity indicated on the dose calibrator at the relevant time points was performed.

dopamine transporter [2] = molecular target: T1, dopamine transporter (Rattus norvegicus, UniProt P23977); assay: Animal PET/CT imaging of [^18F]FP-CIT in the 6-OHDA-induced rat model; type: in vivo, Sprague–Dawley rats; conditions: for SUV of lesion site uptake: 37 MBq i.v.
T1 construct: from tissue; host or cells: striatum of living Sprague-Dawley rats (in vivo PET/CT)
Procedure: We induced the PD model in rats using 6-OHDA according to a previous study. Briefly, female Sprague–Dawley rats (group IV) were intraperitoneally pretreated with desipramine […] (12.5 mg/kg; 12.5 mg/mL). The rats were anesthetized with 3% isoflurane in oxygen, had their heads shaved, and were placed in a stereotactic frame. A lesion in the right striatum was induced by 6-OHDA injection (4 μg/μL, 2 μL/site in 0.2% ascorbic acid) into four coordinate sites (anterior–posterior (AP) + 1.3, + 0.4, − 0.4, and − 1.3 mm; medial–lateral (ML) − 2.6, − 3.0, − 4.2, and − 4.5 mm; and dorsal–ventral (DV) − 5.0 mm) using a 26G Hamilton syringe at a rate of 1 μL/min (n = 3). The syringe was withdrawn slowly 5 min after the injection, and the wound was sutured. The surgical procedure in the sham group was also performed in the same manner using […] in normal saline instead of 6-OHDA (n = 3). All of the rats were randomly assigned to PD and sham model groups.
To evaluate the uptake targeting efficacy in the striatum, animal PET/CT imaging of [^18F]FP-CIT was performed in the same week following the behavioral tests on the group IV 6-OHDA PD model (PD model and sham model, n = 3 per group). PET/CT images were acquired using nanoScan® PET/CT (Mediso Medical Imaging Systems, Budapest, Hungary). PET image acquisition was performed as previously described. Rats were anesthetized with 2% isoflurane in oxygen, and 37 MBq of [^18F]FP-CIT in 1 mL of saline was intravenously injected via the tail vein using a syringe pump (Pump Elite 11, Harvard Apparatus, USA) over 1 min. Dynamic PET scanning was performed for 60 min with 24 frames ([…], 3 × 60, 4 × 300, and 3 × 600 s). Image scans were acquired in the energy window of 400–600 keV. All images were reconstructed using a three-dimensional ordered subset expectation maximization (3D-OSEM) algorithm with four iterations and six subsets. For attenuation correction and anatomical reference, CT imaging was performed immediately after PET using a 50 kVp of X-ray voltage with 0.16 mAs.
To define the anatomical volumes of interest (VOIs), MR scans were obtained on a 31 cm horizontal-bore Agilent 9.4T scanner (Agilent Technologies, Santa Clara, CA, USA) using a 4-channel array mouse head surface coil following PET/CT imaging (Rapid Biomedical GmbH, Rimpar, Germany) (PD model and sham model, n = 3 each). […] The respiratory rates of the rats were monitored using an MR-compatible physiological monitoring and gating system during image acquisition (SA Instruments Inc., USA).
Each PET image was co-registered with the raw MR image to compare the regional [^18F]FP-CIT uptake in the striatum. […] The obtained uptake value, represented as the standardized uptake value (SUV), was determined for each VOI. […]

dopamine transporter [3] = molecular target: T1, dopamine transporter; assay: Correlation between [^18F]FP-CIT PET uptake and tyrosine hydroxylase IHC; type: in vivo, Sprague–Dawley rats; conditions: Pearson
Procedure: After MR and PET/CT studies, group IV rats were anesthetized with 3.5% isoflurane and fixed by intracardial perfusion with 0.9% saline, followed by 4% paraformaldehyde, replacing the blood in the brain. The brains were extracted and post-fixed in 4% paraformaldehyde overnight at 4 °C. Subsequently, the samples were transferred to 30% sucrose at 4 °C until they sank to the bottom. Cryoprotected brains were embedded in optimal cutting temperature compound (Tissue-Tek; Sakura, Torrance, CA, USA) and sectioned in the coronal plane using a microtome (CM1950; Leica, Wetzlar, Germany) at a thickness of 30 μm. Free-floating brain sections were rinsed with PBS, treated with 3% hydrogen peroxide for 30 min, and then washed with PBS again. Sections were permeabilized with 0.3% Trioton-X-100 for 30 min and washed with PBS. […]
IHC slide imaging was performed using a slide scanner (MoticEasyScan Pro 6; Motic, Kowloon, Hong Kong). The intensity of TH antibody binding was quantified by delineating regions of interest (ROI) for positive lesion and intact sites on the IHC images using ImageJ software. An average of four slides for each brain sample was analyzed. […]
The correlation between [^18F]FP-CIT uptake and TH intensity was assessed, considering absolute values for each lesion and intact site in the striatum. Additionally, lesion/intact ratio values for each study were calculated and analyzed. […]

dopamine transporter [4] = conditions: PET scanning; cited from earlier work

T1 sequence (P23977 whole entry): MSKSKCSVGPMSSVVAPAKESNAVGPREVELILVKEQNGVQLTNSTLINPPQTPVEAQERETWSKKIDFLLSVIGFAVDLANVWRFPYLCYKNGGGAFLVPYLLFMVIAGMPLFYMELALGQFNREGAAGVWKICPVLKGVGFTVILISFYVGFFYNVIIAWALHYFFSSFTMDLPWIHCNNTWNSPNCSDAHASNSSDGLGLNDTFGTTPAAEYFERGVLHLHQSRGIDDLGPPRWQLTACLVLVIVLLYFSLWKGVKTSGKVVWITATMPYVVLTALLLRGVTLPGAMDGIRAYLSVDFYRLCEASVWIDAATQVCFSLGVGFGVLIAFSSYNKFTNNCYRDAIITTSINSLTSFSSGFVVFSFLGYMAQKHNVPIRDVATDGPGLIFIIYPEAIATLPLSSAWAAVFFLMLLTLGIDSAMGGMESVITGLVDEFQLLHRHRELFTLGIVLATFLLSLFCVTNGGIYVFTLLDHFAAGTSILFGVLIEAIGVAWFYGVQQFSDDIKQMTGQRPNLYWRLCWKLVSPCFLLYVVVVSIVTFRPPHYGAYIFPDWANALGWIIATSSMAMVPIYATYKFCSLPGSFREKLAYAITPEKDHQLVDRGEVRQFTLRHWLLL

COC(=O)[C@H]1[C@@H](c2ccc(I)cc2)C[C@@H]2CC[C@H]1N2CCCF [[^18F]FP-CIT, N-(3-fluoropropyl)-2β-carboxymethoxy-3β-(4-iodophenyl) nortropane]
Accumulated excretion radioactivity (Decay corrected) ([1]; 1 h, Mean ± SD of 6 mice (group II)): 0.03 ± 0.04 mCi | Accumulated excretion radioactivity (Decay corrected) ([1]; 1 h, individual mice no. 1-6 (group II), 37 MBq i.v.): 0.00 mCi and 0.01 mCi and 0.10 mCi and 0.03 mCi and 0.02 mCi | Accumulated excretion radioactivity (Decay corrected) ([1]; 2 h, Mean ± SD of 6 mice (group II)): 0.05 ± 0.04 mCi | Accumulated excretion radioactivity (Decay corrected) ([1]; 2 h, individual mice no. 1-6 (group II), 37 MBq i.v.): 0.07 mCi and 0.01 mCi and 0.11 mCi and 0.02 mCi and 0.05 mCi | Accumulated excretion radioactivity (Decay corrected) ([1]; 3 h, Mean ± SD of 6 mice (group II)): 0.06 ± 0.05 mCi | Accumulated excretion radioactivity (Decay corrected) ([1]; 3 h, individual mice no. 1-6 (group II), 37 MBq i.v.): 0.07 mCi and 0.01 mCi and 0.15 mCi and 0.02 mCi and 0.08 mCi and 0.05 mCi | Accumulated excretion radioactivity (Decay corrected) ([1]; 4 h, Mean ± SD of 6 mice (group II)): 0.08 ± 0.06 mCi | Accumulated excretion radioactivity (Decay corrected) ([1]; 4 h, individual mice no. 1-6 (group II), 37 MBq i.v.): 0.11 mCi and 0.01 mCi and 0.16 mCi and 0.02 mCi and 0.09 mCi and 0.08 mCi | Accumulated excretion radioactivity (Decay corrected) ([1]; 5 h, Mean ± SD of 6 mice (group II)): 0.09 ± 0.05 mCi | Accumulated excretion radioactivity (Decay corrected) ([1]; 5 h, individual mice no. 1-6 (group II), 37 MBq i.v.): 0.11 mCi and 0.04 mCi and 0.17 mCi and 0.02 mCi and 0.09 mCi and 0.08 mCi | Accumulated excretion radioactivity (Decay corrected) ([1]; 6 h, Mean ± SD of 6 mice (group II)): 0.09 ± 0.05 mCi | Accumulated excretion radioactivity (Decay corrected) ([1]; 6 h, individual mice no. 1-6 (group II), 37 MBq i.v.): 0.12 mCi and 0.04 mCi and 0.17 mCi and 0.02 mCi and 0.10 mCi | Excretion ratio ([1]; till 6 h, individual mice no. 1-6 (group II)): 26.99% and 14.17% and 31.89% and 6.20% and 22.94% and 26.58% | time at which transient equilibrium tendency appeared in TACs (dopamine transporter [2]; intact striatum, post-injection): approximately 5 min | reduction of lesion site SUV, PD group vs sham group (dopamine transporter [2]; striatum lesion site): 55.4% | SUV of lesion site uptake (dopamine transporter [2]; striatum lesion site, PD group (6-OHDA)): 1.85 ± 0.13 | SUV of lesion site uptake (dopamine transporter [2]; striatum lesion site, sham group): 4.15 ± 0.86 | correlation coefficient (R) between animal PET/CT uptake and TH intensity by IHC, absolute values (dopamine transporter [3]; each lesion and intact site in the striatum, n = 12): 0.803 | correlation coefficient (R) between animal PET/CT uptake and TH intensity by IHC, lesion/intact ratio values (dopamine transporter [3]; n = 6): 0.973 | time of transient equilibrium in time activity curves (specific binding to the striatum) (dopamine transporter [4]): 60 to 100 min
